A word on the Ki: it is a measure of affinity in units of concentration, obtained from inhibition or displacement. A higher Ki goes with a looser hold on the target.

For one test, the target named is T1, Carbonic anhydrase 4 (Bos taurus, UniProt Q95323).
T1 sequence (Q95323 whole entry): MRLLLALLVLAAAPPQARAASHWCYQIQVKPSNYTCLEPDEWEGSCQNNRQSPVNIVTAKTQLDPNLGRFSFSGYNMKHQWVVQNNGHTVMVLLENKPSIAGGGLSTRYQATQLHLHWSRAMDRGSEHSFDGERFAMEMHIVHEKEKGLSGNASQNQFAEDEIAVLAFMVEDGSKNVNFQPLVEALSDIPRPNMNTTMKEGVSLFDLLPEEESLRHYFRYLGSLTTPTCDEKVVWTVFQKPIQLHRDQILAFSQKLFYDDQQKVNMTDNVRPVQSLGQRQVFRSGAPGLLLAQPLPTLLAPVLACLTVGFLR

The next test deals with Carbonic anhydrase 2 (Homo sapiens, UniProt P00918).
The next test deals with Carbonic anhydrase 1 (Homo sapiens, UniProt P00915).
Sequence of Carbonic anhydrase 1 (P00915 whole entry): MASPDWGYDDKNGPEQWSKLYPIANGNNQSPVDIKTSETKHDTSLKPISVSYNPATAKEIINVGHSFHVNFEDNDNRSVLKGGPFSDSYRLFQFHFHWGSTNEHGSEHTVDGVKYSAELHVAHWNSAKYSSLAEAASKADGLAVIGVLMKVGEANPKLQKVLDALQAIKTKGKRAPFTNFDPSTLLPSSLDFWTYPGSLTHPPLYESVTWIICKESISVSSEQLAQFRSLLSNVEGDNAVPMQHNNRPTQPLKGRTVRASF

Take `CCCC(=O)Nc1ccc(S(N)(=O)=O)cc1`: on Carbonic anhydrase 4, the Ki worked out at 2540 nM.
On to `CC(=O)Nc1ccc(S(N)(=O)=O)cc1`, for which the inhibition constant (Ki) worked out at 246 nM on Carbonic anhydrase 2, 2850 nM at Carbonic anhydrase 4 and 21400 nM at Carbonic anhydrase 1.
The molecule `CCCCC(=O)Nc1ccc(S(N)(=O)=O)cc1` displayed a Ki at Carbonic anhydrase 4 of 2370 nM.
As for `CC(=O)Nc1ccc(S(=O)(=O)Nc2nnc(S(N)(=O)=O)s2)cc1Br`, the Ki came to 2 nM on Carbonic anhydrase 2 and 4 nM at Carbonic anhydrase 4.
Turning to `NS(=O)(=O)c1ccc(/N=C\c2ncc[nH]2)cc1`, the Ki at Carbonic anhydrase 2 amounted to 120 nM; on Carbonic anhydrase 4, 130 nM; on Carbonic anhydrase 1, 1000 nM.
For `Cn1nc(S(N)(=O)=O)s/c1=N/C(=O)c1ccco1` the same measures were 6 nM, 30 nM and 290 nM.
On Carbonic anhydrase 1, `NS(=O)(=O)c1ccc(CCNC(=O)c2cc3ccccc3oc2=O)cc1` showed a Ki of 66 nM.
On to `CC(=O)Nc1ccc(S(=O)(=O)Nc2nnc(S(N)(=O)=O)s2)cc1Cl`, for which the Ki was found to be 1 nM at Carbonic anhydrase 2, 4 nM on Carbonic anhydrase 4 and 5 nM on Carbonic anhydrase 1.
As for `NS(=O)(=O)c1ccc(NC(=O)CCCCC(F)(F)C(F)(F)F)cc1`, the Ki on Carbonic anhydrase 4 stood at 600 nM; on Carbonic anhydrase 1 it was 950 nM.
In the same order, the values of `CC(C)(C)C(=O)Nc1nnc(S(N)(=O)=O)s1` are 185 nM and 645 nM.
Consider `NS(=O)(=O)c1ccc(NS(=O)(=O)c2ccc(F)cc2)cc1`, for which the Ki was 9 nM at Carbonic anhydrase 2, 15 nM at Carbonic anhydrase 4 and 40 nM on Carbonic anhydrase 1.
`NS(=O)(=O)c1ccc(CNS(=O)(=O)c2ccccc2)cc1` showed a Ki on Carbonic anhydrase 4 of 64 nM.
Turning to `CC(=O)Nc1ccc(S(=O)(=O)Nc2nnc(S(N)(=O)=O)s2)cc1`, the Ki at Carbonic anhydrase 2 amounted to 3 nM; on Carbonic anhydrase 4, 8 nM.
As for `NS(=O)(=O)c1ccc(CCNS(=O)(=O)c2ccccc2)cc1`, the results for the Ki on Carbonic anhydrase 2, on Carbonic anhydrase 4 and at Carbonic anhydrase 1 were 28 nM, 39 nM and 69 nM, respectively.
With `NS(=O)(=O)c1ccc(CCNC(=O)Nc2ccc(Cl)c(Cl)c2)cc1`, the inhibition constant (Ki) was determined as 13 nM at Carbonic anhydrase 2, 20 nM at Carbonic anhydrase 4 and 12 nM at Carbonic anhydrase 1.
Turning to `Cn1nc(S(N)(=O)=O)s/c1=N/C(=O)CCCCC(F)(F)C(F)(F)F`, the inhibition constant (Ki) was found to be 8 nM on Carbonic anhydrase 4 and 270 nM on Carbonic anhydrase 1.
On to `CC(=O)Nc1ccc(S(=O)(=O)NCCc2ccc(S(N)(=O)=O)cc2)cc1`, for which the Ki at Carbonic anhydrase 2 was found to be 75 nM; on Carbonic anhydrase 4, 119 nM; at Carbonic anhydrase 1, 187 nM.
Take `CCN[C@H]1CC(CCCOC)S(=O)(=O)c2sc(S(N)(=O)=O)cc21` (stereo not given in full): affinity at Carbonic anhydrase 4 was put at a Ki of 45 nM.
Still for that read-out and setting: for `NS(=O)(=O)c1ccc(NS(=O)(=O)c2ccccc2)cc1` the value was 85 nM.
The same measure, in the same setting: then `CC(C)C(=O)Nc1ccc(S(N)(=O)=O)cc1`, with 2840 nM.
As for `NS(=O)(=O)c1ccc(CNC(=O)c2cc3ccccc3oc2=O)cc1`, the Ki on Carbonic anhydrase 1 was determined as 69 nM.
For the molecule `CCCCCC(=O)Nc1ccc(S(N)(=O)=O)cc1`, the results for the Ki on Carbonic anhydrase 2, on Carbonic anhydrase 4 and at Carbonic anhydrase 1 were 63 nM, 980 nM and 14200 nM, respectively.
For `NS(=O)(=O)c1ccc(NC(=O)C(F)(F)F)cc1`, the Ki at Carbonic anhydrase 4 was 2100 nM.
Regarding `Cn1nc(S(N)(=O)=O)s/c1=N/C(=O)c1ccccc1`, the figures for the Ki at Carbonic anhydrase 2, on Carbonic anhydrase 4 and at Carbonic anhydrase 1 were 17 nM, 174 nM and 850 nM, respectively.
Molecule `CC(C)(C)C(=O)Nc1ccc(S(N)(=O)=O)cc1` showed a Ki on Carbonic anhydrase 4 of 2550 nM.
Same read-out and setting: then `CCC(=O)Nc1ccc(S(N)(=O)=O)cc1`, with 2630 nM.
With `NS(=O)(=O)c1ccc(NS(=O)(=O)c2ccc([N+](=O)[O-])cc2)cc1`, the Ki was determined as 10 nM at Carbonic anhydrase 2, 22 nM at Carbonic anhydrase 4 and 31 nM on Carbonic anhydrase 1.
Take `CC(=O)Nc1ccc(S(=O)(=O)Nc2nnc(S(N)(=O)=O)s2)cc1F`: the inhibitory constant (Ki) on Carbonic anhydrase 2 was determined as 1 nM; at Carbonic anhydrase 1 it was 6 nM.
As to `NS(=O)(=O)c1ccc(CNC(=O)Nc2ccccc2)cc1`, the figures for the Ki on Carbonic anhydrase 4 and on Carbonic anhydrase 1 were 140 nM and 800 nM, respectively.
In turn, `NS(=O)(=O)c1ccc(NC(=O)c2cc3ccccc3oc2=O)cc1` yielded a Ki at Carbonic anhydrase 1 of 74 nM.
With `NS(=O)(=O)c1nnc(NC(=O)CCCCC(F)(F)C(F)(F)F)s1`, the Ki turned out to be 2 nM at Carbonic anhydrase 2, 10 nM at Carbonic anhydrase 4 and 250 nM at Carbonic anhydrase 1.
At Carbonic anhydrase 4, `NS(=O)(=O)c1ccc(NC(=O)c2ccccc2)cc1` gave a Ki of 176 nM.
Consider `NS(=O)(=O)c1nnc(NC(=O)c2ccccc2)s1`, for which the Ki at Carbonic anhydrase 4 is 163 nM; on Carbonic anhydrase 1, 900 nM.

The values above are taken from ChEMBL document CHEMBL1149322, “Carbonic anhydrase inhibitors. Inhibition of mitochondrial isozyme V with aromatic and heterocyclic sulfonamides” (J Med Chem, 2004).
